From patent US20220089575A1, “FARNESOID X RECEPTOR AGONISTS AND USES THEREOF” (Metacrine, Inc., priority 2017, published 2022)

Target: T1, hFXR (Homo sapiens, UniProt Q96RI1)
T1 construct: expressed in transfected cells; host or cells: CV-1 cells
T1 sequence (Q96RI1 1-486): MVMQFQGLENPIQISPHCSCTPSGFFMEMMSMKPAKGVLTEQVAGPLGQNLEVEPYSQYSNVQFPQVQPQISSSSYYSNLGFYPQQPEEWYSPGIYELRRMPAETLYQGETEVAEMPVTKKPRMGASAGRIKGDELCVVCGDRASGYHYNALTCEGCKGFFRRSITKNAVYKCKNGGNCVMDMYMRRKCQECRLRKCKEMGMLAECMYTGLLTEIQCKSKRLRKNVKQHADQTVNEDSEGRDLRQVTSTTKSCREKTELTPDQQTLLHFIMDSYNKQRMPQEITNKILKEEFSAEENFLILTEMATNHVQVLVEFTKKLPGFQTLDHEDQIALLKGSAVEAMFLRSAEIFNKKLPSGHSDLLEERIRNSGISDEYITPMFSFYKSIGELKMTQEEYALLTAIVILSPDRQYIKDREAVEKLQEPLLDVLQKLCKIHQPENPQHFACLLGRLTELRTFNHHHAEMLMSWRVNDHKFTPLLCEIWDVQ
T1 sequence (P19793 1-462 partner): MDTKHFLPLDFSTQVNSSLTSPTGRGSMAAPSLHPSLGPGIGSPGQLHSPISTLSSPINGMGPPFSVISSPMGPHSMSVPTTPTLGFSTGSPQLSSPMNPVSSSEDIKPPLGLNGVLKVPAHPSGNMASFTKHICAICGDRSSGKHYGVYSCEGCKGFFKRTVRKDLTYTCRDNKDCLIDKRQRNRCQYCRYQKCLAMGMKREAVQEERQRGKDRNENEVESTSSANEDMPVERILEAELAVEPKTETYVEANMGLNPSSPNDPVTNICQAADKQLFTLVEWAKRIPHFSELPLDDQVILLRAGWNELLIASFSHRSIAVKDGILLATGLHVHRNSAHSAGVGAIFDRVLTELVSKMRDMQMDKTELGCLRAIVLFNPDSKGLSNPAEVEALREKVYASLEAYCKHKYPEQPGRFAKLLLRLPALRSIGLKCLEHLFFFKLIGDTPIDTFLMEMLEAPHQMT
Experiment: In Vitro FXR Assay (TK): TK-ECRE-luc reporter in transfected CV-1 cells
Format: cell-based
Settings: 18 hrs, luminescence, maximum efficacy of <25% of the Fexarmine control classified as '+'
In short: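 Reporter transactivation by hFXR was measured in CV-1 cells carrying hRXR and a TK-ECRE-luc construct, with compound treatment for 18 h before lysis and luminescence detection.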

SMILES | EC50 [nM]
COC(=O)N[C@H]1CC[C@H](C(=O)N(C[C@H]2CC[C@H](c3ccc(OC)c(C)c3)CC2)c2cccc(-c3cnc(C4CC4)s3)c2)CC1 [Compound 25, Methyl (trans-4-((3-(2-cyclopropylthiazol-5-yl)phenyl)((trans-4-(4-methoxy-3-methylphenyl)cyclohexyl)methyl)carbamoyl)cyclohexyl)carbamate] | ≤ 250
CNC(=O)O[C@H]1CC[C@H](C(=O)N(C[C@H]2CC[C@H](c3ccc(OC)c(C#N)n3)CC2)c2cccc(-c3cnn(C4CC4)c3)c2)CC1 [Compound 5.23, trans-4-(((trans-4-(6-Cyano-5-methoxypyridin-2-yl)cyclohexyl)methyl)(3-(1-cyclopropyl-1H-pyrazol-4-yl)phenyl)carbamoyl)cyclohexyl methylcarbamate] | ≤ 250
COc1ccc([C@H]2CC[C@H](CN(c3cccc(-c4cnn(C5CC5)c4)c3)C(=O)[C@H]3CC[C@H](C(=O)NCCO)CC3)CC2)cc1C [Compound 23, trans-N^1-(3-(1-Cyclopropyl-1H-pyrazol-4-yl)phenyl)-N^4-(2-hydroxyethyl)-N^1-((trans-4-(4-methoxy-3-methylphenyl)cyclohexyl)methyl)cyclohexane-1,4-dicarboxamide] | 250 to 1000
CCCOC1CN(C(=O)O[C@H]2CC[C@H](C(=O)N(C[C@H]3CC[C@H](c4ccc(OC)c(C)n4)CC3)c3cc(-c4coc(C5CC5)n4)ccn3)CC2)C1 [Compound 7.104, trans-4-((4-(2-Cyclopropyloxazol-4-yl)pyridine-2-yl)((trans-4-(5-methoxy-6-methylpyridin-2-yl)cyclohexyl)methyl)carbamoyl)cyclohexyl 3-propoxyazetidine-1-carboxylate] | ≤ 250
COc1ccc([C@H]2CC[C@H](CN(c3cccc(-c4cnn(C5CC5)c4)c3)C(=O)[C@H]3CC[C@H](OC(=O)NCc4ncc[nH]4)CC3)CC2)cc1C [Compound 4.13, trans-4-((3-(1-Cyclopropyl-1H-pyrazol-4-yl)phenyl)((trans-4-(4-methoxy-3-methylphenyl)cyclohexyl)methyl)carbamoyl)cyclohexyl ((1H-imidazol-2-yl)methyl)carbamate] | ≤ 250
COc1ccc([C@H]2CC[C@H](CN(c3cccc(-c4coc(C5CC5)n4)c3)C(=O)[C@H]3CC[C@H](OC(=O)N4CC(O)C4)CC3)CC2)cc1C#N [Compound 7.68, trans-4-(((trans-4-(3-Cyano-4-methoxyphenyl)cyclohexyl)methyl)(3-(2-cyclopropyloxazol-4-yl)phenyl)carbamoyl)cyclohexyl 3-hydroxyazetidine-1-carboxylate] | ≤ 250
COc1ccc([C@H]2CC[C@H](CN(c3cc(-c4coc(C5CC5)n4)ccn3)C(=O)[C@H]3CC[C@H](OC(=O)NC4CC4)CC3)CC2)nc1C [Compound 6.57, trans-4-((4-(2-Cyclopropyloxazol-4-yl)pyridine-2-yl)((trans-4-(5-methoxy-6-methylpyridin-2-yl)cyclohexyl)methyl)carbamoyl)cyclohexyl cyclopropylcarbamate] | ≤ 250
COc1ccc([C@H]2CC[C@H](CN(c3cc(-c4coc(C5CC5)n4)ccn3)C(=O)[C@H]3CC[C@H](OC(=O)N4CC(C)C4)CC3)CC2)nc1C [Compound 7.89, trans-4-((4-(2-Cyclopropyloxazol-4-yl)pyridine-2-yl)((trans-4-(5-methoxy-6-methylpyridin-2-yl)cyclohexyl)methyl)carbamoyl)cyclohexyl 3-methylazetidine-1-carboxylate] | ≤ 250
CNC(=O)O[C@H]1CC[C@H](C(=O)N(CC23CCC(c4ccc(OC)c(C)c4)(CC2)CC3)c2cccc(C#Cc3nccs3)c2)CC1 [Compound 2.05, 4-(((4-(4-Methoxy-3-methylphenyl)bicyclo[2.2.2]octan-1-yl)methyl)(3-(thiazol-2-ylethynyl)phenyl)carbamoyl)cyclohexyl trans-methylcarbamate] | ≤ 250
COc1ccc(C23CCC(CN(c4cc(-c5cnc(C6CC6)s5)ccn4)C(=O)[C@H]4CC[C@H](C(=O)O)CC4)(CC2)CC3)cc1C [Compound 17.07, trans-4-((4-(2-Cyclopropylthiazol-5-yl)pyridin-2-yl)((4-(4-methoxy-3-methylphenyl)bicyclo[2.2.2]octan-1-yl)methyl)carbamoyl) cyclohexanecarboxylic acid] | ≤ 250
COc1ccc([C@H]2CC[C@H](CN(c3cccc(-c4cnn(C5CC5)c4)c3)C(=O)[C@H]3CC[C@H](OC(=O)N4CC([S+](C)[O-])C4)CC3)CC2)cc1C (stereo partly drawn) [Compound 8.01, trans-4-((3-(1-Cyclopropyl-1H-pyrazol-4-yl)phenyl)((trans-4-(4-methoxy-3-methylphenyl)cyclohexyl)methyl)carbamoyl)cyclohexyl 3-(methylsulfinyl)azetidine-1-carboxylate] | ≤ 250
COc1ccc([C@H]2CC[C@H](CN(c3cc(-c4cnn(C5CC5)c4)ccn3)C(=O)[C@H]3CC[C@H](C(=O)O)CC3)CC2)cc1C [Compound 17.20, trans-4-((4-(1-Cyclopropyl-1H-pyrazol-4-yl)pyridin-2-yl)((trans-4-(4-methoxy-3-methylphenyl)cyclohexyl)methyl)carbamoyl)cyclohexanecarboxylic acid] | ≤ 250
COc1ccc([C@H]2CC[C@H](CN(c3cccc(-c4coc(C5CC5)n4)c3)C(=O)[C@H]3CC[C@H](C(=O)O)CC3)CC2)nc1C#N [Compound 18.05, trans-4-(((trans-4-(6-Cyano-5-methoxypyridin-2-yl)cyclohexyl)methyl)(3-(2-cyclopropyloxazol-4-yl)phenyl)carbamoyl) cyclohexanecarboxylic acid] | ≤ 250
COc1ccc([C@H]2CC[C@H](CN(c3cc(-c4cnn(C(C)C)c4)ccn3)C(=O)[C@H]3CC[C@H](OC(=O)N4CC(OC(C)C)C4)CC3)CC2)nc1C [Compound 7.56, trans-4-((4-(1-Isopropyl-1H-pyrazol-4-yl)pyridin-2-yl)((trans-4-(5-methoxy-6-methylpyridin-2-yl)cyclohexyl)methyl)carbamoyl)cyclohexyl 3-isopropoxyazetidine-1-carboxylate] | ≤ 250
COc1ccc([C@H]2CC[C@H](CN(c3cccc(-c4cnc(C5CC5)s4)c3)C(=O)[C@H]3CC[C@H](OCCN(C)C)CC3)CC2)cc1C [Compound 13.05, trans-N-(3-(2-Cyclopropylthiazol-5-yl)phenyl)-4-(2-(dimethylamino)ethoxy)-N-((trans-4-(4-methoxy-3-methylphenyl)cyclohexyl)methyl) cyclohexanecarboxamide] | 250 to 1000
CNC(=O)O[C@H]1CC[C@H](C(=O)N(C[C@H]2CC[C@H](c3ccc(OC)c(C#N)n3)CC2)c2cc(-c3cnn(C4CC4)c3)ccn2)CC1 [Compound 5.27, trans-4-(((trans-4-(6-Cyano-5-methoxypyridin-2-yl)cyclohexyl)methyl)(4-(1-cyclopropyl-1H-pyrazol-4-yl)pyridin-2-yl)carbamoyl)cyclohexyl methylcarbamate] | ≤ 250
COc1ccc([C@H]2CC[C@H](CN(c3cccc(-c4cnn(C5CC5)c4)c3)C(=O)[C@H]3CC[C@H](OC(=O)N4CC(N(C)C)C4)CC3)CC2)cc1C [Compound 7.27, trans-4-((3-(1-Cyclopropyl-1H-pyrazol-4-yl)phenyl)((trans-4-(4-methoxy-3-methylphenyl)cyclohexyl)methyl)carbamoyl)cyclohexyl 3-(dimethylamino)azetidine-1-carboxylate] | ≤ 250
COc1ccc([C@H]2CC[C@H](CN(c3cccc(-c4cnn(C5CC5)c4)c3)C(=O)[C@H]3CC[C@H](OC(=O)N4CC(N)C4)CC3)CC2)cc1C [Compound 7.39, trans-4-((3-(1-Cyclopropyl-1H-pyrazol-4-yl)phenyl)((trans-4-(4-methoxy-3-methylphenyl)cyclohexyl)methyl)carbamoyl)cyclohexyl 3-aminoazetidine-1-carboxylate] | ≤ 250
COc1ccc([C@H]2CC[C@H](CN(c3cc(-c4coc(C5CC5)n4)ccn3)C(=O)[C@H]3CC[C@H](OC(=O)N4CCN(C(C)C)CC4)CC3)CC2)nc1C [Compound 6.82, trans-4-((4-(2-Cyclopropyloxazol-4-yl)pyridine-2-yl)((trans-4-(5-methoxy-6-methylpyridin-2-yl)cyclohexyl)methyl)carbamoyl)cyclohexyl 4-isopropylpiperazine-1-carboxylate] | ≤ 250
CNC(=O)O[C@H]1CC[C@H](C(=O)N(C[C@H]2CC[C@H](c3ccc(OC)c(C#N)n3)CC2)c2cccc(-c3cnc(C4CC4)s3)c2)CC1 [Compound 5.06, trans-4-(((trans-4-(6-Cyano-5-methoxypyridin-2-yl)cyclohexyl)methyl)(3-(2-cyclopropylthiazol-5-yl)phenyl)carbamoyl)cyclohexyl methylcarbamate] | ≤ 250
